Assays:
Type in all cases: cell-based, human
[1] = test system: monocyte-derived dendritic cells; test: Allogeneic MLR with monocyte-derived DCs
Method: FIG. 9 is a graph showing the effect of DDR1 antibody on the antigen presenting capacity of DCs.
The most important function of DCs is to present antigens to naïve T cells. […] Human T cells were purified from PBMCs of healthy donors by magnetic separation using CD3^+microbeads (Miltenyi Biotech Inc., Auburn, Calif.). T cells (1×10^5) were placed in 96-well plates with increasing numbers of DC (5×10^2−1×10^4 cells) in 200 μl culture medium. On day four, 1 μCi/well of [^3H]thymidine was added, and incorporation of radioactivity was measured after 15 hours of incubation. All tests were performed in triplicate.

THP-1 cells = test: Cytokine and chemokine release from PMA-treated THP-1 cells by ELISA
Method: The production of DDR1a- or 1b-overexpressing THP-1 cells was previously described (Kamohara et al., FASEB J. 15:2724, 2001). Briefly, the human monocytic leukemic cell line, THP-1, was transduced with control retrovirus containing the vector only (mock-transduced) or retrovirus expressing DDR1a or DDR1b. THP-1 cells transduced by each virus were selected with G418, and cloned by limiting dilution. The cloned THP-1 cells were maintained in RPMI 1640 medium supplemented with 100 μg/ml gentamycin and 10% FCS (complete medium). Cells were plated at 1×10^6/ml and treated with PMA (10 nM) for variable times on uncoated or collagen-coated tissue culture plates for quantification of cytokine or chemokine release.
In addition, the concentration of MCP-1 in the culture supernatant of each cell line was measured by ELISA. The concentration of MCP-1 was measured in the Lymphokine Testing Laboratory, Clinical Services Program, SAIC-Frederick (Frederick, Md.) by using an enzyme-linked immunosorbent assay (ELISA) kit (R&D Systems, Minneapolis, Minn.) specific for the chemokine.
In addition, the concentrations of IL-1β, IL-8, and MIP-1α in the culture supernatants of each cell line were quantified by ELISA (FIG. 6). The concentration of IL-1β, IL-8, and MIP-1α were measured in the Lymphokine Testing Laboratory, Clinical Services Program, SAIC-Frederick (Frederick, Md.) by using enzyme-linked immunosorbent assay (ELISA) kits (R&D Systems, Minneapolis, Minn.) specific for each human cytokine and chemokine. […]

NF-κB [2] = test: Nuclear translocation of NF-κB by EMSA; details: DDR1b-overexpressing cells on collagen-coated plates
Method: Nuclear translocation of NF-κB was examined by EMSA. Nuclear extracts were prepared by a method previously reported (Ueda et al., J. Biol. Chem. 272:31092, 1997), and aliquots were frozen at −80° C. For EMSA, end-labeled ^32P-oligonucleotide probes corresponding to the NF-KB binding site of the Ig κ-chain (5′-[…]-3′) (SEQ ID NO: 15) or MCP-1 (A2 site; 5′-[…]-3′) (SEQ ID NO: 16) gene were used. Each probe was incubated with 5 μg of nuclear extracts in 20 μl of binding cocktail (50 mM Tris-HCl, pH 7.4, 25 MM MgCl2, 0.5 mM DTT, 50% glycerol) at 4° C. for 15 minutes. The DNA-protein complexes were resolved on a 5% polyacrylanide gel. The dried gels were exposed to X-ray films.

NF-κB [3] = test: NF-κB luciferase reporter assay in THP-1 cells; details: DDR1b-overexpressing cells
Method: For the results shown in FIG. 7A, mock-transduced or DDR1b-overexpressing THP-1 cells were transfected with 10 μg of the NF-κB-Luc plasmid and 5 μg of pSV-β-galactosidese plasmid DNA (Promega, Madison, Wis.) per 100-mm tissue culture plate using Effectene Transfection Reagent (Qiagen, Valencia, Calif.), according to the manufacture's protocol. After a 12-hour incubation, cells were rinsed with phosphate buffered saline (PBS) and then incubated with 10 nM PMA on collagen-coated plates in the presence of absence of SB203580, PD98059, CAPE or dimethlysulfoxide (DMSO) for another 12 hours. Cells were collected and lysed using the Reporter Lysis Buffer (Promega, Madison, Wis.), and luciferase activity and β-galactosidase activities were measured according to the protocol provided by the manufacturer. The resulting luciferase activity was corrected based on the β-galactosidase activity in the same cell extract. For the results shown in FIG. 7B, DDR1b-overexpressing THP-1 cells were transfected with 10 μg of the pGLM-ENH, or pGLM-MA1MA2 (Ueda et al., J. Bio. Chem. 272: 31092-9, 1997) and 5 μg of pSV-β-galactosidese plasmid DNA (Promega, Madison, Wis.) per 100-mm tissue culture plate using Effectene Transfection Reagent (Qiagen, Valencia, Calif.) according to the manufacture's protocol. […] Cells were collected and lysed using the Reporter Lysis Buffer (Promega, Madison, Wis.), and luciferase activity and β-galactosidase activities were measured according to the protocol provided by the manufacturer. […]
Mock-transduced or DDR1b-overexpressing THP-1 cells were transfected with 10 μg of the NF-κB-Luc plasmid, pGL-ENH, or pGL-MA1MA2 and 5 μg of pSV-β-galactosidase plasmid DNA (Promega, Madison, Wis.) per 100-mm tissue culture plate using Effectene Transfection Reagent (Qiagen, Valencia, Calif.) according to the manufacture's protocol. […] Luciferase activity and β-galactosidase activities were measured according to the protocol provided by the manufacturer. […]

[4] = DDR1b-overexpressing THP-1 cells, PMA, collagen-coated plates, 48 hours

TNF-α
allogeneic MLR by induced mDCs ([1]; cell number-dependent): markedly activated

C[S+]([O-])c1ccc(-c2nc(-c3ccncc3)c(-c3ccc(F)cc3)[nH]2)cc1 (centres unmarked) [SB203580]
collagen-induced up-regulation of IL-1β release (THP-1 cells; [4]): inhibited | collagen-induced up-regulation of IL-8 release (THP-1 cells; [4]): inhibited | collagen-induced up-regulation of MCP-1 release (THP-1 cells; [4]): inhibited | collagen-induced up-regulation of MIP-1α release (THP-1 cells; [4]): inhibited | increased NF-κB/DNA binding (NF-κB [2]): not affected | increase in luciferase activity induced by PMA plus collagen (NF-κB [3]; 12 hours): dose-dependently inhibited | capacity to activate allogeneic MLR of TNF-α-induced DCs and its up-regulation by DDR1 activation [1]: almost completely abrogated

collagen
increase of MCP-1 released on collagen-coated plates (THP-1 cells; PMA-treated DDR1b-overexpressing cells): approximately 7 fold | amount of NF-κB/DNA complex (NF-κB [2]): significantly increased | luciferase activity (NF-κB [3]; PMA plus collagen, NF-κB-Luc plasmid): markedly increased

Source: patent publication US7855076B2, “Use of discoidin domain receptor 1 (DDR1) and agents that affect the DDR1/collagen pathway” (The United States of America as represented by the …, priority 2002, dated 2010)
